Assay results from patent US20090221622A1, “TOPOTECAN READY TO USE SOLUTIONS” (EAGLE PHARMACEUTICALS, INC., priority 2008, published 2009).
Read-outs that look alike come from different tables or passages of the source.

Tests used:
[1] = aqueous media; cited from earlier work
[2] = Solubility of 10-HCPT in aqueous and acid media
[3] = in vivo; cited from earlier work
[4] = Protocol: […] […] Quantitatively, 0.01 area % is equivalent to 0.1 μg/mL of 10-HPCT.
The solution was filled into either flint glass vials or polyethylene vials. One portion of the solution was transferred into 5 ml glass vials and another portion was placed into 5 ml PE vials.

Row | SMILES | Solubility of 10-HCPT [1] | Solubility of 10-HCPT ([2]; 0.01N HCl containing 3% benzyl alcohol) | Increase of solubility of 10-HCPT ([2]; 0.01N HCl containing 3% benzyl alcohol versus about 2 ng/mL) [fold] | Solubility of 10-HCPT ([2]; 0.1 N HCl) [μg/mL] | Solubility of 10-HCPT ([2]; 0.1 N MSA) | Saturation solubility of 10 HCPT ([2]; 10% lactic acid) [µg/mL] | Solubility of 10 HCPT ([2]; 20% lactic acid solution) [µg/mL] | Concentration of 10-HCPT reached before it precipitates ([2]; formulations prepared in hydrochloric acid, pH 1.5 or less) | Solubility of 10-HCPT ([2]; starting value, without benzyl alcohol) | Dose limiting toxicity [3] | 10-HCPT formed by degradation ([4]; 5 weeks, 1 mg/ml, pH 3.2) [%] | 10-HCPT formed by degradation ([4]; 12 weeks, 1 mg/mL, pH 1) [%] | 10-HCPT formed by degradation ([4]; 12 weeks, 1 mg/ml, pH 2) [%]
1 | CC[C@@]1(O)C(=O)OCc2c1cc1n(c2=O)Cc2cc3cc(O)ccc3nc2-1 [Example 10-HCPT, 10-hydroxycamptothecin] | about 2 ng/ml | about 10 μg/mL | ~5000 | 6 | about 6 μg/mL | 6.4 | 15 | about 4 μg/mL | about 2 ng/mL | – | – | – | –
2 | CC[C@@]1(O)C(=O)OCc2c1cc1n(c2=O)Cc2cc3c(CN(C)C)c(O)ccc3nc2-1 [Topotecan] | – | – | – | – | – | – | – | – | – | neutropenia (bone marrow suppression) and thrombocytopenia | 5.64 | 0.07 | 0.6
